Patent publication US20140377324A1, “Pharmaceutical Composition Comprising miRNA-100 And Its Use In The Modulation of Blood Vessel Growth and Endothelial Inflammation” (Universitatsklinikum Freiburg, priority 2009, published 2014)
Entries after “also recorded” stand apart in the source; their conditions may differ. {Chol} = cholesterol

Legend:
[1] = test system: miR-100; experiment: miR-100 expression in endothelial cells after cytokine, inhibitor or statin exposure (stem loop Taqman PCR); assay type: cell-based, human; conditions: for miR-100 expression: endothelial cells exposed to cytokine, TNF-α 10 ng/ml for different time points (FIG. 16A)
Excerpt: (§1) MicoRNA expression was validated by quantitative stem-loop PCR technology (TaqMan MicroRNA Assays, Applied Biosystems, Foster City, Calif.). The use of target-specific reverse transcription primers and TaqMan hybridization probes allows the specific detection of mature microRNAs. MicroRNA expression was normalized to the expression of the small RNAs rnu19 and rnu48.
To search for possible inducers of miR-100 downregulation in endothelial cells, several pro-angiogenic or pro-arteriogenic cytokines were screened for effects on miR-100 expression.
FIG. 16 [A]: Human endothelial cells were stimulated 10 ng/ml TNF-α for different time points. RNA was isolated and quantified using Taqman based Stem loop PCR.
FIG. 16 [B]: The NF-kappaB inhibitor PS1145 (10 μM) was added to TNF-α stimulated (10 ng/ml) human endothelial cells and the miR-100 expression level, compared to controls without PS1145, were measured using Stem loop Taqman PCR.
Human endothelial cells were stimulated with 1 μM Simvastatin for 48 h.

[2] = tissue distribution of fluorescence-labeled antagomir; assay type: in vivo; conditions: mice
[3] = test system: murine hindlimb ischemia model; experiment: murine hindlimb ischemia model, perfusion restoration and capillary density; assay type: in vivo, C57/BI6J mice
Procedure: (§2) The murine hindlimb ischemia model conforms to the Guide for the Care and Use of Laboratory Animals published by the U.S. National Institutes of Health and was performed after securing appropriate institutional approval. Unilateral femoral artery occlusion was performed in C57/BI6J mice (Charles River Lab., Sulzfeld, Germany) by double ligation of the superficial femoral artery proximal to the deep femoral artery and the distal femoral artery just above the knee joint. A sham operation without arterial occlusion was performed on the contralateral leg. For molecular biology, histology and in situ hybridization, tissue was carefully dissected and snap-frozen in liquid nitrogen until further analysis. For dissection of isolated collateral arteries, the hindlimb vasculature was […] with liquid latex, to allow the identification and isolation of individual arterial vessels.
(§3) To assess whether inhibition of miR-100 can be be used to stimulate revascularization in vivo, mice were treated with a specific antagomir against miR-100 after induction of unilateral hindlimb ischemia.
In addition, two separate groups of mice were treated with daily injections of the mTOR-inhibitor rapamycin or solvent to investigate the timecourse of hindlimb perfusion restoration under conditions of endogenous miR-100 downregulation, but impaired signalling of its target gene mTOR.

[4] = test system: miR-100; experiment: miR-100 expression in mouse tissues after antagomir treatment; assay type: in vivo; conditions: mice, three doses of antagomir; FIG. 8
Procedure: as §2, §3

[5] = test system: endothelial cells; experiment: flow cytometric quantification of Annexin V-staining (apoptosis); assay type: cell-based, human; conditions: compared to irrelevant control sequence, FIG. 3
Excerpt: (§4) To assess whether the observed differences were secondary to effects on cellular viability, endothelial cell apoptosis and proliferation following miR-100 modulation was checked. […] DNA-synthesis rate was further analyzed by measuring BrdU-Incorporation, which correlates well with cellular proliferation.

[6] = test system: endothelial cells; experiment: planar matrigel assay, endothelial network formation; assay type: cell-based, human
[7] = test system: mTOR; experiment: mTOR expression in endothelial cells after miR-100 modulation; assay type: cell-based, human; conditions: FIG. 5
Procedure: The binding site of miR-100 in the 3′-UTR of mTOR is shown in (FIG. 6.) In FIG. 6 the sequence designated hsa-miR-100 corresponds to SEQ ID NO:1 and the sequence having the designation mTOR 3′UTR corresponds to SEQ ID NO:7.
For transfection with pre-miR microRNA precursor molecules or anti-miRmiRNA inhibitors (all Ambion), cells were cultured to 70% confluence and transfected with 8nM pre-miR-100 or anti-miR-100 oligonucleotides using Lipofectamin RNAiMax (invitrogen) according to the manufacturers instructions. For transfection of HEK293 cells with mTOR plasmids, 2 μg DNA per 3×10E5 cells was transfected with Fugene 6 transfection reagent (Roche). For double transfection of plasmids with miRNA-precursors and inhibitors, pre- and anti-miRs were added to the plasmid/Fugene transfection mix in the same final concentrations as stated above. mTOR (Acc. NM004958) full length (SKU SC124066) and ORF-constructs (SKU RC220457) were obtained from the Origene collection (Origene, Rockville, Md.).

[8] = test system: HUVECs / human PBMCs; experiment: Leukocyte-HUVEC interaction under flow conditions (flow chamber); assay type: cell-based; conditions: TNF-alpha 30 ng/ml for 24 h, flow 1 dyn/cm^2; FIG. 15
Procedure: HUVECs were grown to confluence, transfected with either anti-miR-100 or pre-Mir-100 oligonucelotides or scrambled controls and stimulated with TNF-alpha 30 ng/ml for 24 h. Human PBMCs (HPBMCs) were obtained from buffy coats of healthy donors by Ficoll-Hypaque density gradient centrifugation. The flow chamber was assembled and placed onto an inverted microscope stage, and freshly isolated HPBMCs (1×10^6/ml) were perfused across the endothelial monolayers. In all experiments, leukocyte interactions were determined over 105 min at 1 dyn/cm^2. Cells interacting on the surface of the endothelium were visualized and recorded using phase-contrast microscopy.
To test if this change in expression results in a functional difference in leukocyte rolling and adhesion to the endothelial surface, the attachment of isolated peripheral blood mononuclear cells (PBMC) to transfected endothelial cells was investigated under physiologic flow conditions in a flow chamber apparatus.
A physiological venous blood flow (1 dynes/cm^2) was induced by a flow chamber apparatus and the number of rolling or adherent peripheral blood mononuclear cells (PBMCs) was counted.

[9] = test system: miR-100; experiment: miR-100 level by quantitative stem-loop RT-PCR after pre-miR/anti-miR transfection; assay type: cell-based, human; conditions: 24 h following transfection; vs irrelevant-sequence controls; FIG. 2
Excerpt: To verify the expression of miR-100 in pure cell populations of the vascular wall, stem-loop RT-PCR was used for total RNA-isolates from cultured human endothelial cells (HUVECs) and human aortic vascular smooth muscle cells.
as §1
miR-100 was strongly expressed in both cell types. To investigate a potential role of miR-100 for angiogenesis, miR-100 was overexpressed and silenced in these cell types by transfecting specific miR-100 precursors (pre-miRs) or antisense-molecules (anti-miRs), respectively. […] Pre- and anti-miRs with an irrelevant nucleotide sequence served as negative controls. There was no significant difference in cellular viability following transfection with the different compounds.
For transfection with pre-miR microRNA precursor molecules or anti-miRmiRNA inhibitors (all Ambion), cells were cultured to 70% confluence and transfected with 8nM pre-miR-100 or anti-miR-100 oligonucleotides using Lipofectamin RNAiMax (invitrogen) according to the manufacturers instructions. […]

[10] = test system: endothelial cells; experiment: BrdU-Incorporation (proliferation), endothelial cells; assay type: cell-based, human; conditions: FIG. 3
Excerpt: as §4

[11] = test system: endothelial cells; experiment: three-dimensional spheroid culture assay, endothelial sprouting; assay type: cell-based, human

Compound: O=C(Nc1cc(Cl)cc2c1[nH]c1cnccc12)c1cccnc1 [PS1145, reference compound]
- TNF-alpha effect on miR-100 expression ([1]; PS1145 10 μM, TNF-α 10 ng/ml, human endothelial cells, FIG. 16B): abrogated the TNF-alpha effect; also recorded: attenuates the regulatory effect of TNF-alpha on miR-100 levels

Compound: Antag-100: antagomir 5′-cacaaguucggaucuacggguu-3′ (SEQ ID No. 3), 2-O-methyl-RNA, phosphothioat modifications, cholesterol conjugation at 3′-end (antisense CACAAGUUCGGAUCUACGGGUU; all 2'-O-methyl, 3' {Chol}, backbone not given here; phosphorothioate modifications)
- tissue localisation of antagomir [2]: found in the endothelial layer of blood vessels; also recorded: most prominent accumulation was found in liver and lung sections
- flow ratio ([3]; day 7 following induction of ischemia, compared to two control-antagomirs): higher flow ratio
- capillary density ([3]; distal hindlimb / ischemic tissue): increase in capillary density
- perfusion restoration (blood flow restoration) ([3]; mice, after femoral artery occlusion, day 7, vs control-antagomirs or solvent, FIG. 9): significant stimulation of perfusion restoration
- miR-100 expression in a wide selection of tissues [4]: strong and sustained suppression of miR-100 expression

Compound: FGF2: pro-angiogenic or pro-arteriogenic cytokine
- miR-100 expression [1]: no sustained and reproducible effect

Compound: TGF-beta1: pro-angiogenic or pro-arteriogenic cytokine
- miR-100 expression [1]: no sustained and reproducible effect

Compound: TNF-alpha
- miR-100 expression [1]: significant downregulation of miR-100
- miR-100 expression ([1]; listed as Tumor necrosis factor (TNF)-alpha): sustained downregulation of miR-100
- dose dependency of miR-100 decrease ([1]; endothelial cells, TNF-alpha concentrations tested): trend for a more pronounced decrease of miR-100 expression with higher doses

Compound: VEGF
- miR-100 expression [1]: no sustained and reproducible effect

Compound: anti-miR-100: antisense-molecule (anti-miR miRNA inhibitor, Ambion) silencing miR-100 in cultured cells; SEQ ID No:3 designated Anti miR (antisense CACAAGUUCGGAUCUACGGGUU; listed as RNA, chemistry not given here)
- endothelial cell apoptosis [5]: no significant effect
- endothelial network formation [6]: increased endothelial network formation
- mTOR-expression on both mRNA as well as protein level [7]: significant upregulation
- leukocyte (PBMC) adhesion to transfected endothelial cells [8]: stimulatory effect
- leukocyte (PBMC) rolling on transfected endothelial cells [8]: stimulatory effect
- detectable miR-100 (relative miR-100 expression) [9]: significantly decreased miR-100 levels
- endothelial cell proliferation (DNA-synthesis rate) [10]: consistent stimulatory effect
- endothelial sprouting (total sprout length) [11]: longer total sprout length
